In assay [1] the test system is leukotriene pathway in human whole blood (LTB4). The assay is described as follows: Human whole blood assay (LTB4 levels after calcium ionophore A23187 stimulation). It counts as cell-based. Conditions: read-out: Human Whole Blood LTB4 IC50 1:1. As to the method: The ability of the compounds of the present invention to treat a FLAP-mediated disease and/or disorder, or associated symptoms or complications thereof, was determined using the following procedures. Binding assay data represent the average value obtained from two different assay plates, with samples run in duplicate on each plate. Human whole blood assay data represent a single replicate on an assay plate using whole blood from at least one healthy donor.
An in vitro cellular assay was performed using human whole blood collected in heparin-containing tubes, which was used to test the ability of compounds to modulate the leukotriene pathway in human whole blood. The blood was diluted 1:1 in RPMI medium, pre-incubated for 15 min at 37° Celsius with test compounds at various concentrations, and then stimulated with calcium ionophore, A23187 (7 μg/mL), for 30 min at 37° Celsius. The samples were then centrifuged and plasma was removed. The plasma was diluted in assay buffer and LTB4 levels were measured using a commercial kit (Enzo Life Sciences). The concentration of each compound that was required for half-maximal inhibition (modulation) of recombinant enzyme activity (IC50) was calculated by a 4-parameter equation using the program GraphPad Prism (GraphPad software).

In the next assay the target is human FLAP (Homo sapiens (Human), UniProt P20292). Nature of the assay: FLAP binding assay (HTRF format). In short, it runs like this:
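Samples were run in duplicate on each of two plates and the plate results averaged. Read-out is the HTRF signal ratio.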
(In TR-FRET formats the signal depends on donor and acceptor labels being close together.)

Setting [2] is: Homo sapiens, Table 6 (additional runs), human whole blood diluted 1:1, A23187 stimulation.
Setting [3] is: Table 6 (additional runs), human FLAP wild type.
Setting [4] is: Homo sapiens, human whole blood diluted 1:1, A23187 stimulation, Table 6 (additional runs).
The mark [5] stands for this setting: human FLAP wild type, Table 6 (additional runs).
The mark [6] stands for this setting: Homo sapiens, human whole blood diluted 1:1 in RPMI, A23187 stimulation, LTB4.

Counter-ions that a name gives are not always drawn. Like-named read-outs stand apart in the source and are kept apart here.

human FLAP, sequence (P20292 whole entry): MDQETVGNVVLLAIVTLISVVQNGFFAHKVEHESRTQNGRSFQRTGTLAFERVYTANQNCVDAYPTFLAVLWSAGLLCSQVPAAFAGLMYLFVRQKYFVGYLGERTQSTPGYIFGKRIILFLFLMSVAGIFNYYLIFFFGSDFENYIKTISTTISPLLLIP

Take `Nc1cnc(-c2ccc(-c3ccccc3S(=O)(=O)C3CCC3)cc2F)cn1` [Example 196, 5-[2′-(Cyclobutylsulfonyl)-3-fluorobiphenyl-4-yl]pyrazin-2-amine]: the IC50 (usually the midpoint of a concentration-inhibition curve) in assay [1] (setting [2]) stood at 96.3 nM. Moreover, the inhibition constant Ki (usually the dissociation constant of the complex between target and ligand, obtained from inhibition or displacement) on human FLAP (setting [3]) was found to be 7.8 nM.

As to `NCCn1cc(-c2ccccc2-c2ccc(-c3cnc(N)cn3)c(F)c2)cn1` [Example 864, 5-{2′-[1-(2-Aminoethyl)-1H-pyrazol-4-yl]-3-fluorobiphenyl-4-yl]pyrazin-2-amine], the IC50 in assay [1] (setting [4]) is 413 nM. This molecule returned an inhibitory constant (Ki) on human FLAP (setting [5]) of 216 nM. Take `C[C@@H](NS(=O)(=O)c1ccccc1-c1ccc(-c2cnc(N)cn2)c(F)c1)C(F)(F)F` [Example 20, (S)-4′-(5-Aminopyrazin-2-yl)-3′-fluoro-N-[(S)-2,2,2-trifluoro-1-methylethyl]biphenyl-2-sulfonamide]: the IC50 in assay [1] (Table 6 (additional runs), human whole blood diluted 1:1, A23187 stimulation) was 8.5 nM. Also, the inhibitory constant (Ki) at human FLAP (setting [3]) is 0.9 nM. As for `N#CCn1cc(-c2ccccc2-c2ccc(-c3cnc(N)cn3)c(F)c2)cn1` [Example 871, {4-[4′-(5-Aminopyrazin-2-yl)-3′-fluorobiphenyl-2-yl]-1H-pyrazol-1-yl}acetonitrile], the IC50 in assay [1] (setting [4]) was 371 nM. Further, affinity on human FLAP (setting [5]) was put at a Ki of 25 nM. The like results for `CC(=O)N1CCC(S(=O)(=O)c2nc(C(F)(F)F)ccc2-c2ccc(-c3cnc(N)cn3)c(F)c2)CC1` [Example 910] were, in that order, 9.2 nM and 2.9 nM. As for `C[C@H](NC(=O)c1cc(C(F)(F)F)ccc1-c1ccc(-c2cnc(N)nc2)c(F)c1)C(F)(F)F` [Example 788, 2-[4-(2-Aminopyrimidin-5-yl)-3-fluoro-phenyl]-5-(trifuoromethyl)-N-[(1S)-2,2,2-trifluoro-1-methyl-ethyl]enzamide], in assay [1] (setting [4]), the IC50 is 1800 nM. Regarding `Nc1ncc(-c2ncc(-c3ccccc3S(=O)(=O)C3CC3)cc2F)cn1` [Example 878, 5-{5-[2-(Cyclopropylsulfonyl)phenyl]-3-fluoropyridin-2-yl}pyrimidin-2-amine], the IC50 in assay [1] (setting [4]) is 320 nM. This molecule showed a Ki on human FLAP (setting [5]) of 276 nM.

As to `C[C@@H](CO)NS(=O)(=O)c1ccccc1-c1cnc(-c2cnc(N)nc2)c(F)c1` [Example 880, 2-[6-(2-Aminopyrimidin-5-yl)-5-fluoropyridin-3-yl]-N-[(1S)-2-hydroxy-1-methylethyl]benzenesulfonamide], in assay [1] (setting [4]), the IC50 is 180 nM. Besides, the Ki on human FLAP (setting [5]) came out at 86.7 nM. The corresponding values for `COCCn1cc(-c2ccccc2-c2ccc(-c3cnc(N)cn3)c(F)c2)cn1` [Example 869, 5-{3-Fluoro-2′-[1-(2-methoxyethyl)-1H-pyrazol-4-yl]biphenyl-4-yl}pyrazin-2-amine] are 844 nM and 141 nM. The corresponding values for `Nc1cnc(-c2ccc(-c3ccccc3OCC3CCS(=O)(=O)CC3)cc2F)cn1` [Example 884, 5-{2′-[(1,1-Dioxidotetrahydro-2H-thiopyran-4-yl)methoxy]-3-fluorobiphenyl-4-yl}pyrazin-2-amine] are 706 nM and 239 nM. On to `Nc1cnc(-c2ccc(-c3ccccc3S(=O)(=O)N[C@H]3c4ccccc4C[C@@H]3O)cc2F)cn1` [Example 158], for which the IC50 in assay [1] (setting [2]) turned out to be 1.4 nM. Also, affinity on human FLAP (setting [3]) was put at a Ki of 0.6 nM. `CC(C)S(=O)(=O)c1ncccc1-c1ccc(-c2cnc(N)cn2)c(F)c1` [Example 395, 5-(2-Fluoro-4-{2-[(1-methylethyl)sulfonyl]pyridin-3-yl}phenyl)pyrazin-2-amine]: in assay [1] (setting [4]), the IC50 is 26.9 nM. Consider `CC(C)(C)NS(=O)(=O)c1ccccc1-c1ccc(-c2cnc(N)c(N)n2)c(F)c1` [Example 428, N-tert-Butyl-4′-(5,6-diaminopyrazin-2-yl)-3′-fluorobiphenyl-2-sulfonamide], for which the IC50 in assay [1] (setting [4]) was determined as 4.4 nM. At human FLAP (setting [5]), this molecule registered a Ki of 4.3 nM. As to `CC(C)S(=O)(=O)c1nc(C(F)(F)F)ccc1-c1ccc(-c2cnc(N)nc2)c(F)c1` [Example 902, 5-(2-Fluoro-4-{2-[(1-methylethyl)sulfonyl]-6-(trifluoromethyl)pyridin-3-yl}phenyl)pyrimidin-2-amine], in assay [1] (setting [4]), the IC50 is 88.6 nM. The affinity at human FLAP (setting [5]) corresponds to a Ki of 18.4 nM. Take `Nc1cnc(-c2ccc(-c3ccccc3S(=O)(=O)NCC3(O)CNC3)cc2F)cn1` [Example 664]: the half-inhibitory concentration (IC50) in assay [1] (setting [4]) and in assay [1] (setting [6]) was over 1000 nM each time.

As for `CC(C)S(=O)(=O)c1nc(C(F)(F)F)ccc1-c1ccc(-c2cnc(N)cn2)c(F)c1` [Example 901, 5-(2-Fluoro-4-{2-[(1-methylethyl)sulfonyl]-6-(trifluoromethyl)pyridin-3-yl}phenyl)pyrazin-2-amine], in assay [1] (setting [4]), the IC50 came out at 1.6 nM. The molecule also yielded an inhibition constant Ki at human FLAP (setting [5]) of 1.8 nM.

Turning to `Nc1cnc(-c2ccc(-c3ccccc3OCc3ccc(C(=O)O)cc3)cc2F)cn1` [Example 886, 4-(([4′-(5-Aminopyrazin-2-yl)-3′-fluorobiphenyl-2-yl]oxy}methyl)benzoic acid], in assay [1] (setting [4]), the 50% inhibitory concentration (IC50) was over 1000 nM. Also, at human FLAP (setting [5]), the Ki was found to be 5.8 nM.

In the case of `Nc1cnc(-c2ccc(-c3ccccc3C(=O)N3CCS(=O)(=O)CC3)cc2F)cn1` [Example 509, 5-{2′-[(1,1-Dioxidathiomorpholin-4-yl)carbonyl]-3-fluorobiphenyl-4-yl}pyrazin-2-amine], the IC50 in assay [1] (setting [4]) is 160 nM.

As to `CC(C)(C)C(=O)Nc1ncccc1-c1ccc(-c2cnc3[nH]ccc3c2)c(F)c1` [Example 802, N-{3-[3-Fluoro-4-(1H-pyrrolo[2,3-b]pyridin-5-yl)phenyl]pyridin-2-yl}-2,2-dimethylpropanamide], in assay [1] (setting [4]), the IC50 was over 1000 nM. Consider `C[C@@H](CO)NS(=O)(=O)c1ccccc1-c1ccc(-c2ccc(N)nc2)c(F)c1` [Example 347, (S)-4′-(6-aminopyridin-3-yl)-3′-fluoro-N-(1-hydroxypropan-2-yl)-[1,1′-biphenyl]-2-sulfonamide], for which the 50% inhibitory concentration (IC50) in assay [1] (setting [2]) and in assay [1] (setting [6]) was 161 nM throughout.

Regarding `C[C@@H](CO)NS(=O)(=O)c1ccccc1-c1ccc(-c2cnc(N)cn2)c(F)c1` [Example 25, (R)-4′-(5-Aminopyrazin-2-yl)-3′-fluoro-N-[(1R)-2-hydroxy-1-methylethyl]piphenyl-2-sulfonamicie], the IC50 in assay [1] (setting [2]) stood at 26.3 nM.

As for `Nc1cnc(-c2ccc(-c3ccccc3S(=O)(=O)N3CC[C@@H](N)C3)cc2F)cn1` [Example 92, (R)-5-(2′-((3-aminopyrrolidin-1-yl)sulfonyl)-3-fluoro-[1,1′-biphenyl]-4-yl)pyrazin-2-amine], in assay [1] (setting [2]), the IC50 amounted to 309 nM. For `Nc1cnc(-c2ccc(-c3ccccc3-c3ccc(N)nn3)cc2F)cn1` [Example 863], the IC50 in assay [1] (setting [4]) stood at 140 nM. `C[C@H](O)CNS(=O)(=O)c1ccccc1-c1ccc(-c2cnc(N)nc2)c(F)c1` [Example 279, 4′-(2-Aminopyrimidin-5-yl)-3′-fluoro-N-[(2S)-2-hydroxypropyl]biphenyl-2-sulfonamide trifluoroacetic acid salt]: the half-maximal inhibitory concentration (IC50) in assay [1] (setting [2]) was 118 nM.

On to `Nc1ccnc(Oc2ccccc2-c2ccc(-c3cnc(N)nc3)c(F)c2)n1` [Example 529], for which, in assay [1] (setting [4]), the IC50 was 79.6 nM.

On human FLAP (setting [3]), `CNC1CCN(S(=O)(=O)c2ccccc2-c2ccc(-c3cnc(N)cn3)c(F)c2)CC1` [Example 72, 5-{3-Fluoro-2′-{[4-(methylamino)piperidin-1-yl]sulfonyl}biphenyl-4-yl)pyrazin.-2-amine] displayed an inhibition constant (Ki) of 120 nM. For `CC(O)CNS(=O)(=O)c1ccccc1-c1ccc(-c2cnc(N)c(C#N)n2)c(F)c1` (stereo in doubt) [Example 415, 4′-(5-Amine-6-cyanopyrazin-2-yl)-3′-fluoro-N-[(R)-2-hydroxypropyl]biphenyl-2-sulfonamide], the inhibition constant Ki at human FLAP (setting [5]) turned out to be 10.9 nM. On to `Nc1cnc(-c2ccc(-c3ccccc3S(=O)(=O)N3CCN(c4ncccn4)CC3)cc2F)cn1` [Example 177], for which the Ki at human FLAP (setting [3]) was 0.5 nM; on human FLAP (human FLAP wild type, a calculated value of 0.000 indicates Ki less than 1 nM), under 1 nM. On human FLAP (setting [3]), `CCNS(=O)(=O)c1cc(C(F)(F)F)ccc1-c1ccc(-c2cnc(N)nc2)c(F)c1` [Example 327] displayed an inhibition constant Ki of 1.8 nM. The molecule `CC(C)(NS(=O)(=O)c1ccccc1-c1ccc(-c2cnc(N)nc2)c(F)c1)C(F)(F)F` [Example 296, 4′-(2-Aminopyrimidin-5-yl)-3′-fluoro-N-(2,2,2-trifluoro-1,1-dimethylethyl)biphenyl-2-sulfonamide trifluoroacetic acid salt] yielded an inhibitory constant (Ki) on human FLAP (setting [3]) of 3.1 nM.

In the case of `Nc1cnc(-c2ccc(-c3ccccc3SCCNC(=O)c3ccccc3)cc2F)cn1` [Example 204, N-(2-{[4′-(5-Aminopyrazin-2-yl)-3′-fluorobiphenyl-2-yl]sulfanyl}ethyl)benzamide], at human FLAP (setting [3]), the inhibition constant (Ki) was determined as 4.5 nM. `CC(=O)c1ccccc1-c1ccc(-c2cnc(N)cn2)c(F)c1` [Example 483, 1-[4′-(5-Aminopyrazin-2-yl)-3′-fluorobiphenyl-2-yl]ethanone] gave a Ki at human FLAP (setting [5]) of about 354 nM. Turning to `Cc1ccccc1-c1ccc(-c2cnc(N)cn2)c(F)c1` [Example 470, 5-(3-Fluoro-2′-methylbiphenyl-4-yl)pyrazin-2-amine], the Ki on human FLAP (setting [5]) was 397 nM.

Take `CS(=O)(=O)c1cc(F)ccc1-c1ccc(-c2cnc3[nH]ccc3n2)c(F)c1` [Example 489, 2-[3,4′-Difluoro-2′-(methylsulfonyl)biphenyl-4-yl]-5H-pyrrolo[2,3-b]pyrazine]: the affinity on human FLAP (setting [5]) corresponds to a Ki of 19.6 nM.

These data come from US9745328B2, “Flap modulators” (JANSSEN PHARMACEUTICA NV, priority 2013, dated 2017).
